Assay results taken from US11667607B1 (ZYLORION HEALTH INC., priority 2022, dated 2023).

Experiments:
[1] = Exposure of solids to 2 days at 40° C./75% RH (AAC), remeasured by XRPD; format: physicochemical; settings: Table 1, lyophilization/recrystallization; ambient-dried solid after 2 days 40° C./75% RH; crystalline; pc = poor crystalline
[2] = Dynamic vapor sorption (DVS) moisture sorption isotherm, solid re-measured by HT-XRPD; format: physicochemical
Method: Moisture sorption isotherms were collected on a DVS Adventure system from Surface Measurement Systems (London, UK). Sample size was circa 10 mg of solid material. A full sorption and desorption isotherm was recorded by varying the relative humidity from 40-95-0-40% in steps of 10% at a constant temperature of 25° C. Weight equilibration per step was set at dm/dt of 0.002%/min. Afterwards the sample was measured by HT-XRPD.

SMILES: CCc1cc(/C(C)=N/OCc2ccc(C3CCCCC3)c(C(F)(F)F)c2)ccc1CN1CC(C(=O)O)C1.CCc1cc(/C(C)=N/OCc2ccc(C3CCCCC3)c(C(F)(F)F)c2)ccc1CN1CC(C(=O)O)C1.O=C(O)/C=C/C(=O)O [crystalline Form A]
- HT-XRPD AAC-Amb-dried (solid form after AAC) [1]: Form A
- mass uptake at 80% RH ([2]; DVS, 25° C.): 2.4%
- total mass difference between 0-95% RH ([2]; DVS, 25° C., RH cycle 40-95-0-40%): 3.6%
- hygroscopicity according to the EP hygroscopicity classification ([2]; DVS, based on mass uptake at 80% RH): moderately hygroscopic
- physical stability after the sorption-desorption cycle (XRPD of solid recovered after DVS) ([2]; after DVS cycle 40-95-0-40% RH, 25° C.): physically stable
